From patent EP0090603A2, “Antibacterial compounds” (BEECHAM GROUP PLC, priority 1982, dated 1983)

Legend:
M. suipneumoniae UCD 1 = test: MIC against Mycoplasma, in vitro agar dilution; format: cell-based; settings: Friis broth solidified with 0.9% agarose, 10^3 to 10^5 C.F.U., 6 days at 37°C
Strep. dysgalactiae SPD1 = test: MIC against Veterinary Bacteria, in vitro agar dilution; settings: […], 10^4 organisms, 18 hours at 37°C
Procedure: (§1) The activity of the compounds of the Examples against various veterinarily important bacteria, was assayed in vitro using two-fold serial dilutions in Diagnostic Sensitivity Test Agar inoculated with 10^4 organisms.

E. coli NCTC 10418 = test: as above; settings: […], 10^4 organisms, 18 hours at 37°C
Procedure: as §1

S. typhimurium S18 = test: as above; settings: […], 10^4 organisms, 18 hours at 37°C
Procedure: as §1

M. suipneumoniae NB12 = test: MIC against Mycoplasma, in vitro agar dilution; format: cell-based; settings: Friis broth solidified with 0.9% agarose, 10^3 to 10^5 C.F.U., 6 days at 37°C
M. dispar NCTC 10125 = test: MIC against Mycoplasma, in vitro agar dilution; format: cell-based; settings: Friis broth solidified with 0.9% agarose, 10^3 to 10^5 C.F.U., 6 days at 37°C
[1] = test system: M. bovigenitalium ATCC 14173; test: MIC against Mycoplasma, in vitro agar dilution; format: cell-based; settings: Friis broth solidified with 0.9% agarose, 10^3 to 10^5 C.F.U., 6 days at 37°C
Past. multocida PA1 = test: MIC against Veterinary Bacteria, in vitro agar dilution; settings: […], 10^4 organisms, 18 hours at 37°C
Procedure: as §1

M. suipneumoniae TAM 6N = test: MIC against Mycoplasma, in vitro agar dilution; format: cell-based; settings: Friis broth solidified with 0.9% agarose, 10^3 to 10^5 C.F.U., 6 days at 37°C
M. hyorhinis ATCC 23234 = test: MIC against Mycoplasma, in vitro agar dilution; format: cell-based; settings: Friis broth solidified with 0.9% agarose, 10^3 to 10^5 C.F.U., 6 days at 37°C
M. suipneumoniae MS 16 = test: MIC against Mycoplasma, in vitro agar dilution; format: cell-based; settings: Friis broth solidified with 0.9% agarose, 10^3 to 10^5 C.F.U., 6 days at 37°C
M. suipneumoniae JF 435 = test: MIC against Mycoplasma, in vitro agar dilution; format: cell-based; settings: Friis broth solidified with 0.9% agarose, 10^3 to 10^5 C.F.U., 6 days at 37°C
[2] = test system: Erysipelothrix rhusiopathiae NCTC 8163; test: MIC against Veterinary Bacteria, in vitro agar dilution; settings: […], 10^4 organisms, 18 hours at 37°C
Procedure: as §1

[3] = test system: M. hyosynoviae ATCC 25591; test: MIC against Mycoplasma, in vitro agar dilution; format: cell-based; settings: Friis broth solidified with 0.9% agarose, 10^3 to 10^5 C.F.U., 6 days at 37°C
Bord. bronchiseptica B09 = test: MIC against Veterinary Bacteria, in vitro agar dilution; settings: […], 10^4 organisms, 18 hours at 37°C
Procedure: as §1

Staph. aureus Oxford = test: as above; settings: […], 10^4 organisms, 18 hours at 37°C
Procedure: as §1

E. coli E1 = test: as above; settings: […], 10^4 organisms, 18 hours at 37°C
Procedure: as §1

S. dublin S7 = test: as above; settings: […], 10^4 organisms, 18 hours at 37°C
Procedure: as §1

M. suipneumoniae HK(2) = test: MIC against Mycoplasma, in vitro agar dilution; format: cell-based; settings: Friis broth solidified with 0.9% agarose, 10^3 to 10^5 C.F.U., 6 days at 37°C
[4] = test system: M. suipneumoniae PW/C/210; test: MIC against Mycoplasma, in vitro agar dilution; format: cell-based; settings: Friis broth solidified with 0.9% agarose, 10^3 to 10^5 C.F.U., 6 days at 37°C
Past. multocida PA2 = test: MIC against Veterinary Bacteria, in vitro agar dilution; settings: […], 10^4 organisms, 18 hours at 37°C
Procedure: as §1

M. suipneumoniae LABER = test: MIC against Mycoplasma, in vitro agar dilution; format: cell-based; settings: Friis broth solidified with 0.9% agarose, 10^3 to 10^5 C.F.U., 6 days at 37°C
[5] = test system: Corynebacterium pyogenes CY1; test: MIC against Veterinary Bacteria, in vitro agar dilution; settings: 10^4 organisms, 18 hours at 37°C
Procedure: as §1

[6] = test system: M. suipneumoniae J2206/183^b; test: MIC against Mycoplasma, in vitro agar dilution; format: cell-based; settings: Friis broth solidified with 0.9% agarose, 10^3 to 10^5 C.F.U., 6 days at 37°C
[7] = test system: M. suipneumoniae NCTC 10110; test: MIC against Mycoplasma, in vitro agar dilution; format: cell-based; settings: Friis broth solidified with 0.9% agarose, 10^3 to 10^5 C.F.U., 6 days at 37°C
[8] = test system: Staph. aureus 152 (pen. sens); test: MIC against Veterinary Bacteria, in vitro agar dilution; settings: […], 10^4 organisms, 18 hours at 37°C
Procedure: as §1

M. hyorhinis ATCC 25021 = test: MIC against Mycoplasma, in vitro agar dilution; format: cell-based; settings: Friis broth solidified with 0.9% agarose, 10^3 to 10^5 C.F.U., 6 days at 37°C
[9] = test system: Staph. aureus B4 (pen. resistant); test: MIC against Veterinary Bacteria, in vitro agar dilution; settings: […], 10^4 organisms, 18 hours at 37°C
Procedure: as §1

Strep. uberis SPU1 = test: as above; settings: […], 10^4 organisms, 18 hours at 37°C
Procedure: as §1

M. suipneumoniae Str. 11 = test: MIC against Mycoplasma, in vitro agar dilution; format: cell-based; settings: Friis broth solidified with 0.9% agarose, 10^3 to 10^5 C.F.U., 6 days at 37°C
M. pneumoniae ATCC 15492 = test: MIC against Mycoplasma, in vitro agar dilution; format: cell-based; settings: Friis broth solidified with 0.9% agarose, 10^3 to 10^5 C.F.U., 6 days at 37°C
M. bovis NCTC 10131 = test: microbe, parasite or virus in culture; format: cell-based; settings: Friis broth solidified with 0.9% agarose, 10^3 to 10^5 C.F.U., 6 days at 37°C
[10] = test system: M. suipneumoniae ATCC 25095; test: MIC against Mycoplasma, in vitro agar dilution; format: cell-based; settings: Friis broth solidified with 0.9% agarose, 10^3 to 10^5 C.F.U., 6 days at 37°C
Past. haemolytica PA5 = test: MIC against Veterinary Bacteria, in vitro agar dilution; settings: […], 10^4 organisms, 18 hours at 37°C
Procedure: as §1

M. gallisepticum S6 = test: MIC against Mycoplasma, in vitro agar dilution; format: cell-based; settings: Friis broth solidified with 0.9% agarose, 10^3 to 10^5 C.F.U., 6 days at 37°C
[11] = test system: Strep. suis (group D) SPS11; test: MIC against Veterinary Bacteria, in vitro agar dilution; settings: […], 10^4 organisms, 18 hours at 37°C
Procedure: as §1

Bord. bronchiseptica B08 = test: as above; settings: […], 10^4 organisms, 18 hours at 37°C
Procedure: as §1

Substance: Methyl 9-[4-(5S-(2S,3S-epoxy-5S-hydroxy-4S-methylhexyl-3R,4R-dihydroxytetrahydropyran-2S-yl)-2,3-dimethylbut-2(E)-enoyloxy]nonanoate [Example 6]
- MIC's against M. suipneumoniae UCD 1 (M. suipneumoniae UCD 1): 10.0 µg/mL
- MIC's against Strep. dysgalactiae SPD1 (Strep. dysgalactiae SPD1): 0.625 µg/mL
- MIC's against E. coli NCTC 10418 (E. coli NCTC 10418): >80 µg/mL
- MIC's against S. typhimurium S18 (S. typhimurium S18): >80 µg/mL
- MIC's against M. suipneumoniae NB12 (M. suipneumoniae NB12): 2.5 µg/mL
- MIC's against M. dispar NCTC 10125 (M. dispar NCTC 10125): 2.5 µg/mL
- MIC's against M. bovigenitalium ATCC 14173 [1]: 0.25 µg/mL
- MIC's against Past. multocida PA1 (Past. multocida PA1): 5.0 µg/mL
- MIC's against M. suipneumoniae TAM 6N (M. suipneumoniae TAM 6N): 10.0 µg/mL
- MIC's against M. hyorhinis ATCC 23234 (M. hyorhinis ATCC 23234): 1.0 µg/mL
- MIC's against M. suipneumoniae MS 16 (M. suipneumoniae MS 16): 2.5 µg/mL
- MIC's against M. suipneumoniae JF 435 (M. suipneumoniae JF 435): 5.0 µg/mL
- MIC's against Erysipelothrix rhusiopathiae NCTC 8163 [2]: >80 µg/mL
- MIC's against M. hyosynoviae ATCC 25591 [3]: 1.0 µg/mL
- MIC's against Bord. bronchiseptica B09 (Bord. bronchiseptica B09): 5.0 µg/mL
- MIC's against Staph. aureus Oxford (Staph. aureus Oxford): 0.625 µg/mL
- MIC's against E. coli E1 (E. coli E1): >80 µg/mL
- MIC's against S. dublin S7 (S. dublin S7): >80 µg/mL
- MIC's against M. suipneumoniae HK(2) (M. suipneumoniae HK(2)): 10.0 µg/mL
- MIC's against M. suipneumoniae PW/C/210 [4]: 2.5 µg/mL
- MIC's against Past. multocida PA2 (Past. multocida PA2): 5.0 µg/mL
- MIC's against M. suipneumoniae LABER (M. suipneumoniae LABER): 2.5 µg/mL
- MIC's against Corynebacterium pyogenes CY1 [5]: >80 µg/mL
- MIC's against M. suipneumoniae J2206/183^b [6]: 10.0 µg/mL
- MIC's against M. suipneumoniae NCTC 10110 [7]: 10.0 µg/mL
- MIC's against Staph. aureus 152 (pen. sens) [8]: 2.5 µg/mL
- MIC's against M. hyorhinis ATCC 25021 (M. hyorhinis ATCC 25021): 1.0 µg/mL
- MIC's against Staph. aureus B4 (pen. resistant) [9]: 1.25 µg/mL
- MIC's against Strep. uberis SPU1 (Strep. uberis SPU1): 0.312 µg/mL
- MIC's against M. suipneumoniae Str. 11 (M. suipneumoniae Str. 11): 2.5 µg/mL
- MIC's against M. pneumoniae ATCC 15492 (M. pneumoniae ATCC 15492): 10.0 µg/mL
- MIC's against M. bovis NCTC 10131 (M. bovis NCTC 10131): 0.1 µg/mL
- MIC's against M. suipneumoniae ATCC 25095 [10]: 2.5 µg/mL
- MIC's against Past. haemolytica PA5 (Past. haemolytica PA5): 80 µg/mL
- MIC's against M. gallisepticum S6 (M. gallisepticum S6): >10.0 µg/mL
- MIC's against Strep. suis (group D) SPS11 [11]: 10 µg/mL
- MIC's against Bord. bronchiseptica B08 (Bord. bronchiseptica B08): 40 µg/mL
